Assay results: ChEMBL document CHEMBL5303573, “Mapping human microbiome drug metabolism by gut bacteria and their genes” (Nature, 2019)

Experiments:
[1] = The drug is tested on Anaerococcus hydrogenalis strain: DSM7454 for biotransformation. The drug concentrations were measured before and after a 12-h incubation by liquid-chromatography-coupled mass spectrometry (LC–MS); details: 2 µM
[2] = The drug is tested on Bacteroides fragilis strain: HMW615 for biotransformation. The drug concentrations were measured before and after a 12-h incubation by liquid-chromatography-coupled mass spectrometry (LC–MS); details: 2 µM
[3] = The drug is tested on Blautia luti strain: DSM14534 for biotransformation. The drug concentrations were measured before and after a 12-h incubation by liquid-chromatography-coupled mass spectrometry (LC–MS); assay type: ADME; design: dose 2 uM, timepoint 0 vs 12 hours; details: 2 µM
[4] = The drug is tested on Collinsella aerofaciens strain: ATCC25986 for biotransformation. The drug concentrations were measured before and after a 12-h incubation by liquid-chromatography-coupled mass spectrometry (LC–MS); details: 2 µM
[5] = The drug is tested on Bacteroides caccae strain: ATCC43185 for biotransformation. The drug concentrations were measured before and after a 12-h incubation by liquid-chromatography-coupled mass spectrometry (LC–MS); details: 2 µM
[6] = The drug is tested on Edwardsiella tarda strain: ATCC23685 for biotransformation. The drug concentrations were measured before and after a 12-h incubation by liquid-chromatography-coupled mass spectrometry (LC–MS); details: 2 µM
[7] = The drug is tested on Coprococcus comes strain: ATCC27758 for biotransformation. The drug concentrations were measured before and after a 12-h incubation by liquid-chromatography-coupled mass spectrometry (LC–MS); assay type: ADME; design: dose 2 uM, timepoint 0 vs 12 hours; details: 2 µM
[8] = The drug is tested on Ruminococcus torques strain: ATCC27756 for biotransformation. The drug concentrations were measured before and after a 12-h incubation by liquid-chromatography-coupled mass spectrometry (LC–MS); assay type: ADME; design: dose 2 uM, timepoint 0 vs 12 hours; details: 2 µM
[9] = The drug is tested on Bacteroides finegoldii strain: DSM17565 for biotransformation. The drug concentrations were measured before and after a 12-h incubation by liquid-chromatography-coupled mass spectrometry (LC–MS); details: 2 µM
[10] = The drug is tested on Bacteroides dorei strain: DSM17855 for biotransformation. The drug concentrations were measured before and after a 12-h incubation by liquid-chromatography-coupled mass spectrometry (LC–MS); details: phocaeicola dorei, 2 µM
[11] = The drug is tested on Alistipes indistinctus strain: DSM22520 for biotransformation. The drug concentrations were measured before and after a 12-h incubation by liquid-chromatography-coupled mass spectrometry (LC–MS); details: 2 µM
[12] = The drug is tested on Eubacterium rectale strain: ATCC33656 for biotransformation. The drug concentrations were measured before and after a 12-h incubation by liquid-chromatography-coupled mass spectrometry (LC–MS); details: agathobacter rectalis, 2 µM
[13] = anaerostipes sp., 12 h, 2 µM
Description: The drug is tested on Anaerostipes sp. strain: fecal isolate for biotransformation. The drug concentrations were measured before and after a 12-h incubation by liquid-chromatography-coupled mass spectrometry (LC–MS)

[14] = The drug is tested on Bacteroides sp. WH2 strain: WH2 for biotransformation. The drug concentrations were measured before and after a 12-h incubation by liquid-chromatography-coupled mass spectrometry (LC–MS); details: bacteroides sp. wh2, 12 h, 2 µM
[15] = The drug is tested on Ruminococcus gnavus strain: ATCC29149 for biotransformation. The drug concentrations were measured before and after a 12-h incubation by liquid-chromatography-coupled mass spectrometry (LC–MS); details: mediterraneibacter gnavus, 2 µM
[16] = The drug is tested on Bacteroides fragilis strain: HMW610 for biotransformation. The drug concentrations were measured before and after a 12-h incubation by liquid-chromatography-coupled mass spectrometry (LC–MS); details: 2 µM
[17] = enterocloster bolteae, 12 h, 2 µM
Description: The drug is tested on Clostridium bolteae strain: ATCCBAA-613 for biotransformation. The drug concentrations were measured before and after a 12-h incubation by liquid-chromatography-coupled mass spectrometry (LC–MS)

[18] = The drug is tested on Bifidobacterium ruminantium strain: fecal isolate for biotransformation. The drug concentrations were measured before and after a 12-h incubation by liquid-chromatography-coupled mass spectrometry (LC–MS); details: 2 µM

SMILES | Bacterial Biotransformation [1] | Bacterial Biotransformation [2] | Bacterial Biotransformation [3] | Bacterial Biotransformation [4] | Bacterial Biotransformation [5] | Bacterial Biotransformation [6] | Bacterial Biotransformation [7] | Bacterial Biotransformation [8] | Bacterial Biotransformation [9] | Bacterial Biotransformation [10] | Bacterial Biotransformation [11] | Bacterial Biotransformation [12] | Bacterial Biotransformation [13] | Bacterial Biotransformation [14] | Bacterial Biotransformation [15] | Bacterial Biotransformation [16] | Bacterial Biotransformation [17] | Bacterial Biotransformation [18]
OCCN(CCO)c1nc(N2CCCCC2)c2nc(N(CCO)CCO)nc(N3CCCCC3)c2n1 [DIPYRIDAMOLE] | Compound NOT metabolized | Compound NOT metabolized | Compound NOT metabolized | Compound NOT metabolized | Compound NOT metabolized | Compound NOT metabolized | Compound NOT metabolized | Compound NOT metabolized | Compound NOT metabolized | Compound metabolized | Compound NOT metabolized | Compound NOT metabolized | Compound NOT metabolized | Compound NOT metabolized | Compound NOT metabolized | – | – | –
Cc1ccccc1C(OCCN(C)C)c1ccccc1.O=C(O)CC(O)(CC(=O)O)C(=O)O (stereo not given) [ORPHENADRINE CITRATE] | Compound NOT metabolized | Compound NOT metabolized | Compound NOT metabolized | Compound NOT metabolized | Compound NOT metabolized | Compound NOT metabolized | Compound NOT metabolized | Compound NOT metabolized | Compound NOT metabolized | Compound NOT metabolized | Compound NOT metabolized | – | Compound NOT metabolized | Compound NOT metabolized | Compound NOT metabolized | Compound NOT metabolized | – | –
CC(C)(C(=O)O)c1ccc(C(O)CCCN2CCC(C(O)(c3ccccc3)c3ccccc3)CC2)cc1 (stereo not given) [FEXOFENADINE] | Compound NOT metabolized | Compound NOT metabolized | Compound NOT metabolized | Compound NOT metabolized | Compound NOT metabolized | Compound NOT metabolized | – | Compound NOT metabolized | Compound NOT metabolized | Compound NOT metabolized | Compound NOT metabolized | Compound NOT metabolized | Compound NOT metabolized | Compound NOT metabolized | Compound NOT metabolized | Compound NOT metabolized | Compound NOT metabolized | Compound NOT metabolized
N#Cc1ccc2c(c1)N(CCCN1CCC(O)CC1)c1ccccc1S2 [PERICIAZINE] | Compound NOT metabolized | Compound NOT metabolized | Compound NOT metabolized | Compound NOT metabolized | Compound metabolized | Compound NOT metabolized | Compound NOT metabolized | Compound NOT metabolized | Compound metabolized | Compound metabolized | Compound metabolized | Compound NOT metabolized | Compound NOT metabolized | Compound NOT metabolized | Compound NOT metabolized | Compound metabolized | Compound NOT metabolized | –
COc1ccc([C@@H]2Sc3ccccc3N(CCN(C)C)C(=O)[C@@H]2OC(C)=O)cc1 [DILTIAZEM] | Compound NOT metabolized | – | Compound NOT metabolized | Compound metabolized | Compound metabolized | Compound NOT metabolized | Compound metabolized | Compound metabolized | Compound metabolized | Compound metabolized | Compound metabolized | Compound NOT metabolized | Compound metabolized | Compound metabolized | Compound NOT metabolized | Compound NOT metabolized | Compound NOT metabolized | Compound NOT metabolized
COCCCC/C(=N\OCCN)c1ccc(C(F)(F)F)cc1.O=C(O)/C=C\C(=O)O [FLUVOXAMINE MALEATE] | Compound NOT metabolized | Compound NOT metabolized | Compound NOT metabolized | Compound NOT metabolized | Compound NOT metabolized | Compound NOT metabolized | – | Compound NOT metabolized | Compound NOT metabolized | Compound NOT metabolized | Compound NOT metabolized | Compound NOT metabolized | Compound NOT metabolized | Compound NOT metabolized | Compound NOT metabolized | – | – | Compound metabolized
CN1[C@@H]2CC[C@H]1C[C@@H](OC(=O)C(CO)c1ccccc1)C2 (stereo not given in full) [ATROPINE] | Compound NOT metabolized | – | Compound NOT metabolized | Compound NOT metabolized | Compound NOT metabolized | – | Compound NOT metabolized | Compound NOT metabolized | Compound NOT metabolized | Compound NOT metabolized | Compound NOT metabolized | Compound NOT metabolized | – | Compound NOT metabolized | Compound NOT metabolized | Compound NOT metabolized | – | Compound NOT metabolized
